System: STZ induced diabetic nephropathy in rats
Assay: Study 4: HCQ and its combination with Losartan, Telmisartan, Azilsartan and Ramipril, with Glimepiride control
Assay type: in vivo, Wistar rats
Details: for HDL / TC / TG / GSH / TBARS / Total protein kidney / Creatinine / Total protein / Urea: after 8th week; for Glucose Day1 / Glucose Day14 / Glucose Day28 / Glucose Day42 / Glucose Day56: blood; for GSH / TBARS / Total protein kidney: kidney homogenate; for Creatinine / Total protein / Urea: serum
Procedure: The methods described in Terri et al, Diabetes Volume, 1997, 46:1612-1618, and Takashi et al, Jpn J. Pharmacol, 1997, 75, 59-64, were followed for inducing Diabetes in rats by injecting Streptozotocin. The Efficacy of the drugs was tested in two different models, one involving comparison with diabetic control (i.e. Diabetic Rats not treated with any medication) and the other involving comparison with the anti-diabetic control group (i.e. Diabetic rats administered Glimepiride) in two separate studies.
Wistar rats of either sex weighing 150-200 g were divided randomly into 28 groups consisting of 6 animals each. Diabetes was induced in rats by single administration of streptozotocin (55 mg/kg/i.p) dissolved in 0.1 M-citrate buffer, pH 4.5. Group 1 (normal control) consisted of normal rats that neither received streptozotocin nor any test drug; Group 2 served as Diabetic control; Group 3 was diabetic rats treated with Hydroxychloroquine (35 mg/kg); Group 4 was diabetic rats treated with Hydroxychloroquine (45 mg/kg) and Group 5 was diabetic rats treated with Hydroxychloroquine (70 mg/kg); Group 6 was diabetic rats treated with Losartan (5.5 mg/kg); Group 7 was diabetic rats treated with Losartan (11 mg/kg); Group 8 was diabetic rats treated with combination of Losartan (5.5 mg/kg) and Hydroxychloroquine (45 mg/kg); Group 9 was diabetic rats treated with combination of Losartan (11 mg/kg) and Hydroxychloroquine (35 mg/kg); Group 10 was diabetic rats treated with Ramipril (0.6 mg/kg); Group 11 was diabetic rats treated with Ramipril (0.3 mg/kg); Group 12 was diabetic rats treated with combination of Ramipril (0.6 mg/kg) and Hydroxychloroquine (35 mg/kg); Group 13 was diabetic rats treated with combination of Ramipril (0.3 mg/kg) and Hydroxychloroquine (45 mg/kg); Group 14 was diabetic rats treated with combination of Ramipril (0.6 mg/kg) and Hydroxychloroquine (45 mg/kg); Group 15 was diabetic rats treated with combination of Ramipril (0.3 mg/kg) and Hydroxychloroquine (35 mg/kg); Group 16 was diabetic rats treated with Telmisartan (9.5 mg/kg); Group 17 was diabetic rats treated with Telmisartan (4.5 mg/kg); Group 18 was diabetic rats treated with combination of Telmisartan (9.5 mg/kg) and Hydroxychloroquine (35 mg/kg); Group 19 was diabetic rats treated with combination of Telmisartan (4.5 mg/kg) and Hydroxychloroquine (45 mg/kg); Group 20 was diabetic rats treated with combination of Telmisartan (9.5 mg/kg) and Hydroxychloroquine (45 mg/kg); Group 21 was diabetic rats treated with combination of Telmisartan (4.5 mg/kg) and Hydroxychloroquine (35 mg/kg); Group 22 was diabetic rats treated with Azilsartan (4.5 mg/kg); Group 23 was diabetic rats treated with Azilsartan (2.5 mg/kg); Group 24 was diabetic rats treated with combination of Azilsartan (4.5 mg/kg) and Hydroxychloroquine (35 mg/kg); Group 25 was diabetic rats treated with combination of Azilsartan (2.5 mg/kg) and Hydroxychloroquine (45 mg/kg); Group 26 was diabetic rats treated with combination of Azilsartan (4.5 mg/kg) and Hydroxychloroquine (45 mg/kg); Group 27 was diabetic rats treated with combination of Azilsartan (2.5 mg/kg) and Hydroxychloroquine (35 mg/kg); Group 28 served as Anti-Diabetic control wherein diabetic rats were treated with antidiabetic drug Glimepiride (GLM) (1 mg/kg).
The study drugs were dissolved/suspended in vehicle and administered orally once a day for eight weeks. The diabetes mellitus induced nephropathy was assessed by estimating the level of serum urea, serum creatinine and total serum protein content after completion of eighth week of study. TBARS, GSH and Total Protein were measured as markers of renal oxidative stress in Kidney Homogenate after completion of eighth week of study. Blood glucose levels were also assessed at weekly interval.

[1] = dose mg/kg: HCQ 35, LT 5.5, RM 0.3, TL 4.5, AZ 2.5, alone or combined with HCQ 35
[2] = dose mg/kg: HCQ 45, LT 11, RM 0.6, TL 9.5, AZ 4.5, alone or combined with HCQ 45

CCCc1nc2c(C)cc(-c3nc4ccccc4n3C)cc2n1Cc1ccc(-c2ccccc2C(=O)O)cc1 [Telmisartan]
HDL [1]: 26 ± 1.67 mg/dL
TC [1]: 138.67 ± 3.93 mg/dL
TG [1]: 100.33 ± 5.57 mg/dL
HDL [2]: 26.83 ± 1.47 mg/dL
TC [2]: 141.5 ± 2.88 mg/dL
TG [2]: 97.67 ± 6.09 mg/dL
Glucose Day1 [1]: 281.83 ± 12.46 mg/dL
Glucose Day1 [2]: 275.33 ± 15.45 mg/dL
Glucose Day14 [1]: 221.83 ± 12.37 mg/dL
Glucose Day14 [2]: 221.5 ± 16.02 mg/dL
Glucose Day28 [1]: 181.83 ± 5.04 mg/dL
Glucose Day28 [2]: 184.33 ± 8.31 mg/dL
Glucose Day42 [1]: 162 ± 9.21 mg/dL
Glucose Day42 [2]: 159.83 ± 7.03 mg/dL
Glucose Day56 [1]: 139 ± 7.85 mg/dL
Glucose Day56 [2]: 141 ± 7.07 mg/dL
GSH [1]: 0.86 ± 0.06 nM/mg
TBARS [1]: 0.65 ± 0.15 nM/mg
Total protein kidney [1]: 879.17 ± 29.41 µg/mL
GSH [2]: 0.96 ± 0.11 nM/mg
TBARS [2]: 0.54 ± 0.14 nM/mg
Total protein kidney [2]: 864.5 ± 25.65 µg/mL
Creatinine [1]: 3.68 ± 0.31 mg/dL
Total protein [1]: 4.93 ± 0.23 g/dL
Urea [1]: 42.67 ± 2.5 mg/dL
Creatinine [2]: 3.91 ± 0.15 mg/dL
Total protein [2]: 4.61 ± 0.18 g/dL
Urea [2]: 41.5 ± 2.35 mg/dL

Reference: US20160030415A1, “TREATMENT AND PROPHYLAXIS OF KIDNEY DISEASES” (priority 2013, published 2016)
